# Test results: patent US20170232083A1, “METHODS OF DIAGNOSIS AND TREATMENT OF CELIAC DISEASE IN CHILDREN” (priority 2014, published 2017)
# Tested on: PBMC (polyclonal gluten-specific T cells) of paediatric and adult CD patients
# Experiment: IFN-γ ELISpot of PBMC after 3 day oral wheat challenge (SFU, % of maximal peptide response, dominance scores, EC50; Examples 5-6)
# Type: cell-based, human
# Details: for Cross-reactive T cell response: following wheat challenge; for IFN-γ ELISpot response: after oral wheat challenge
# [1] = subject I (3-5yrs/6-10yrs part)
# [2] = subject J (3-5yrs/6-10yrs part)
# [3] = subject K (3-5yrs/6-10yrs part)
# [4] = subject V (3-5yrs/6-10yrs part)
# [5] = subject W (3-5yrs/6-10yrs part)
# [6] = subject Y (3-5yrs/6-10yrs part)
# [7] = subject five (3-5yrs/6-10yrs part)
# [8] = subject seven (3-5yrs/6-10yrs part)
# [9] = subject six (3-5yrs/6-10yrs part)
# [10] = subject ten (3-5yrs/6-10yrs part)
# [11] = subject two (3-5yrs/6-10yrs part)
sequence,measurement,setting,value
QPFPQPEQPIPQQ,Cross-reactive T cell response,"subject A, 11-17yrs",3 SFU
same,Significant response as a percentage of maximal peptide SFU,"subject D, 11-17yrs",+ (>70% = +)
same,Cross-reactive T cell response,"subject D, 11-17yrs",29 SFU
same,Significant response as a percentage of maximal peptide SFU,"subject E, 11-17yrs",′′ (21-40% = ′′)
same,Cross-reactive T cell response,"subject E, 11-17yrs",87 SFU
same,Significant response as a percentage of maximal peptide SFU,"subject F, 11-17yrs",′′ (21-40% = ′′)
same,Cross-reactive T cell response,"subject F, 11-17yrs",62 SFU
same,Cross-reactive T cell response,"subject G, 11-17yrs",4 SFU
same,Cross-reactive T cell response,subject H,1 SFU
same,Cross-reactive T cell response,[1],3 SFU
same,Significant response as a percentage of maximal peptide SFU,subject J,′′′ (41-70% = ′′′)
same,Cross-reactive T cell response,[2],132 SFU
same,Significant response as a percentage of maximal peptide SFU,subject K,′ (11-20% = ′)
same,Cross-reactive T cell response,[3],11 SFU
same,Significant response as a percentage of maximal peptide SFU,"subject P, 11-17yrs",+ (>70% = +)
same,Cross-reactive T cell response,"subject P, 11-17yrs",48 SFU
same,Significant response as a percentage of maximal peptide SFU,"subject Q, 11-17yrs",′′′ (41-70% = ′′′)
same,Cross-reactive T cell response,"subject Q, 11-17yrs",64 SFU
same,Significant response as a percentage of maximal peptide SFU,"subject T, 11-17yrs",+ (>70% = +)
same,Cross-reactive T cell response,"subject T, 11-17yrs",87 SFU
same,Significant response as a percentage of maximal peptide SFU,"subject U, 11-17yrs",′′′ (41-70% = ′′′)
same,Cross-reactive T cell response,"subject U, 11-17yrs",41 SFU
same,Significant response as a percentage of maximal peptide SFU,subject V,′′′ (41-70% = ′′′)
same,Cross-reactive T cell response,[4],17 SFU
same,Cross-reactive T cell response,[5],5 SFU
same,Cross-reactive T cell response,[6],7 SFU
same,Significant response as a percentage of maximal peptide SFU,subject five,+ (>70% = +)
same,Cross-reactive T cell response,[7],44 SFU
same,Cross-reactive T cell response,"subject nine, 11-17yrs",1 SFU
same,Cross-reactive T cell response,[8],7 SFU
same,Significant response as a percentage of maximal peptide SFU,subject six,+ (>70% = +)
same,Cross-reactive T cell response,[9],12 SFU
same,Cross-reactive T cell response,[10],4 SFU
same,Significant response as a percentage of maximal peptide SFU,subject two,′′ (21-40% = ′′)
same,Cross-reactive T cell response,[11],24 SFU
QPFPQPEQPIPVQ,IFN-γ ELISpot response,"patient A, 11-17 yrs, cut-off 10 SFU",5 SFU
same,Significant response as percentage of maximal peptide SFU,"patient D, max peptide 30.5 SFU",′′′ (41-70% = ′′′)
same,IFN-γ ELISpot response,"patient E, H, 11-17 yrs, cut-off 10 SFU",76 SFU
same,Significant response as percentage of maximal peptide SFU,"patient E, max peptide 224 SFU",′′ (21-40% = ′′)
same,IFN-γ ELISpot response,"patient F, 11-17 yrs, cut-off 10 SFU",103 SFU
same,Significant response as percentage of maximal peptide SFU,"patient F, max peptide 178 SFU",′′′ (41-70% = ′′′)
same,IFN-γ ELISpot response,"patient G, 11-17 yrs, cut-off 10 SFU",3 SFU
same,IFN-γ ELISpot response,"patient H (HLA-DQ2.5 homozygote), 3-5yrs, cut-off 10 SFU",29 SFU
same,IFN-γ ELISpot response,"patient H, 11-17 yrs, cut-off 10 SFU",10 SFU
same,Significant response as percentage of maximal peptide SFU,"patient H, max peptide 17 SFU",′′′ (41-70% = ′′′)
same,IFN-γ ELISpot response,"patient ID not given, 11-17 yrs, cut-off 10 SFU",95 SFU
same,Significant response as percentage of maximal peptide SFU,"patient J, max peptide 196 SFU",′′′ (41-70% = ′′′)
same,Significant response as percentage of maximal peptide SFU,"patient K, max peptide 53 SFU",′ (11-20% = ′)
same,Significant response as percentage of maximal peptide SFU,"patient M, max peptide 48 SFU",′′′ (41-70% = ′′′)
same,IFN-γ ELISpot response,"patient N, 3-5yrs, cut-off 10 SFU",2 SFU
same,IFN-γ ELISpot response,"patient P, 11-17 yrs, cut-off 21.6 SFU",42 SFU
same,Significant response as percentage of maximal peptide SFU,"patient P, max peptide 64 SFU",′′′ (41-70% = ′′′)
same,IFN-γ ELISpot response,"patient Q, 11-17 yrs, cut-off 10 SFU",51 SFU
same,Significant response as percentage of maximal peptide SFU,"patient Q, max peptide 97 SFU",′′′ (41-70% = ′′′)
same,IFN-γ ELISpot response,"patient U, H, 11-17 yrs, cut-off 10 SFU",27 SFU
same,Significant response as percentage of maximal peptide SFU,"patient U, max peptide 81 SFU",′′ (21-40% = ′′)
same,IFN-γ ELISpot response,"patient V, 6-10 yrs, cut-off 10 SFU",27 SFU
same,Significant response as percentage of maximal peptide SFU,"patient V, max peptide 35 SFU",+ (>70% = +)
same,IFN-γ ELISpot response,"patient Y, 6-10 yrs, cut-off 10 SFU",9 SFU
same,IFN-γ ELISpot response,"patient eleven, 6-10 yrs, cut-off 10 SFU",9 SFU
same,Significant response as percentage of maximal peptide SFU,"patient five, max peptide 48 SFU",+ (>70% = +)
same,IFN-γ ELISpot response,"patient four, 3-5yrs, cut-off 10 SFU",10 SFU
same,Significant response as percentage of maximal peptide SFU,"patient four, max peptide 44 SFU",′′ (21-40% = ′′)
same,IFN-γ ELISpot response,"patient seven, 6-10 yrs, cut-off 10.5 SFU",9 SFU
same,IFN-γ ELISpot response,"patient ten, 3-5yrs, cut-off 10 SFU",11 SFU
same,Significant response as percentage of maximal peptide SFU,"patient ten, max peptide 14.5 SFU",+ (>70% = +)
same,IFN-γ ELISpot response,"patient three, 6-10 yrs, cut-off 10.5 SFU",126 SFU
same,IFN-γ ELISpot response,"patient twelve, 11-17 yrs, cut-off 10 SFU",20 SFU
same,IFN-γ ELISpot response,"patient two, 3-5yrs, cut-off 10 SFU",53 SFU
same,Significant response as percentage of maximal peptide SFU,"patient two, max peptide 60 SFU",+ (>70% = +)
QPFPQPEQPIPYQ,Cross-reactive T cell response,"subject A, 11-17yrs",8 SFU
same,Significant response as a percentage of maximal peptide SFU,"subject D, 11-17yrs",+ (>70% = +)
same,Cross-reactive T cell response,"subject D, 11-17yrs",23 SFU
same,Significant response as a percentage of maximal peptide SFU,"subject E, 11-17yrs",′′ (21-40% = ′′)
same,Cross-reactive T cell response,"subject E, 11-17yrs",86 SFU
same,Significant response as a percentage of maximal peptide SFU,"subject F, 11-17yrs",′′′ (41-70% = ′′′)
same,Cross-reactive T cell response,"subject F, 11-17yrs",84 SFU
same,Cross-reactive T cell response,"subject G, 11-17yrs",2 SFU
same,Cross-reactive T cell response,subject H,3 SFU
same,Cross-reactive T cell response,[1],5 SFU
same,Significant response as a percentage of maximal peptide SFU,subject J,′′′ (41-70% = ′′′)
same,Cross-reactive T cell response,[2],124 SFU
same,Significant response as a percentage of maximal peptide SFU,subject K,′′ (21-40% = ′′)
same,Cross-reactive T cell response,[3],21 SFU
same,Significant response as a percentage of maximal peptide SFU,"subject P, 11-17yrs",′′′ (41-70% = ′′′)
same,Cross-reactive T cell response,"subject P, 11-17yrs",33 SFU
same,Significant response as a percentage of maximal peptide SFU,"subject Q, 11-17yrs",′′′ (41-70% = ′′′)
same,Cross-reactive T cell response,"subject Q, 11-17yrs",58 SFU
same,Significant response as a percentage of maximal peptide SFU,"subject T, 11-17yrs",+ (>70% = +)
same,Cross-reactive T cell response,"subject T, 11-17yrs",84 SFU
same,Significant response as a percentage of maximal peptide SFU,"subject U, 11-17yrs",′′′ (41-70% = ′′′)
same,Cross-reactive T cell response,"subject U, 11-17yrs",55 SFU
same,Significant response as a percentage of maximal peptide SFU,subject V,′′′ (41-70% = ′′′)
same,Cross-reactive T cell response,[4],22 SFU
same,Cross-reactive T cell response,[5],11 SFU
same,Significant response as a percentage of maximal peptide SFU,subject Y,′′′ (41-70% = ′′′)
same,Cross-reactive T cell response,[6],11 SFU
same,Significant response as a percentage of maximal peptide SFU,subject five,′′′ (41-70% = ′′′)
same,Cross-reactive T cell response,[7],30 SFU
same,Cross-reactive T cell response,"subject nine, 11-17yrs",0 SFU
same,Cross-reactive T cell response,[8],8 SFU
same,Significant response as a percentage of maximal peptide SFU,subject six,+ (>70% = +)
same,Cross-reactive T cell response,[9],11 SFU
same,Cross-reactive T cell response,[10],9 SFU
same,Significant response as a percentage of maximal peptide SFU,subject two,′′′ (41-70% = ′′′)
same,Cross-reactive T cell response,[11],31 SFU
